Experimental data: patent US20250197384A1, “AZOLE COMPOUND AND ANTIFUNGAL AGENT” (NIHON NOHYAKU CO., LTD., priority 2022, published 2025)
≈ marks a conversion by molar mass, not a printed value.

How the values were obtained:
[1] = test system: Candida albicans NBRC1270; test: In vitro anti-Candida activity test; type: cell-based; details: for C. albicans (MIC): 80% or more inhibition, unit inferred
Method: Candida albicans NBRC1270 was used as the strain. The test fungi were cultured on a Sabouraud dextrose agar slant medium at 35° C. for 24 hr, and then suspended in sterilized saline. The number of cells in this suspension was counted using a hemocytometer, and the same suspension was adjusted to a cell concentration of 1.5×10^5 cells/mL, and this was used as an inoculum. Each compound was dissolved in dimethyl sulfoxide to a predetermined concentration, and diluted 50-fold with 0.165 M MOPS buffered RPMI 1640 liquid medium, and each diluted solution was dispensed into a 96-well microplate by each 100 μL. The inoculum was diluted 50-fold with 0.165 M MOPS buffered RPMI 1640 liquid medium containing 20% alamar Blue™, and the diluted solution was inoculated into the 96-well microplate containing the compound by each 100 μL (final inoculum amount 1.5×10^3 cells/mL). After static culture at 35° C. for 24 hr, the degree of color development of the alamar Blue™ was measured using a microplate reader (O.D. 570-595 nm), and the minimum concentration showing 80% or more inhibition was defined as the minimum inhibitory concentration (MIC).

[2] = test system: Aspergillus fumigatus TIMM0063; test: In vitro anti-Aspergillus activity test; type: cell-based; details: for A. fumigatus (MIC): 80% or more inhibition, unit inferred
Method: Aspergillus fumigatus TIMM0063 was used as the strain. The test fungi were cultured on a Potato dextrose agar slant medium at 35° C. for 4 days, and then sterilized saline containing 0.1% (v/v) Tween 80 was added to release the conidia. This conidial suspension was filtered through sterile gauze, and the number of conidia was counted using a hemocytometer. The same solution was adjusted to a conidial concentration of 1×10^6 conidia/mL, and this was used as an inoculum. Each compound was dissolved in dimethyl sulfoxide to a predetermined concentration, and diluted 50-fold with 0.165 M MOPS buffered RPMI 1640 liquid medium, and each diluted solution was dispensed into a 96-well microplate by each 100 μL. The inoculum was diluted 50-fold with 0.165 M MOPS buffered RPMI 1640 liquid medium containing 20% alamar Blue™, and the diluted solution was inoculated into the 96-well microplate containing the compound by each 100 μL (final inoculum amount 1.0×10^4 conidia/mL). After static culture at 35° C. for 48 hr, the degree of color development of the alamar Blue™ was measured using a microplate reader (O.D. 570-595 nm), and the minimum concentration showing 80% or more inhibition was defined as the minimum inhibitory concentration (MIC).

[3] = Table 22, 35° C. for 24 hr, alamar Blue, minimum concentration showing 80% or more inhibition
[4] = Table 22, 35° C. for 48 hr, alamar Blue, minimum concentration showing 80% or more inhibition

CC(C)COC(=O)Nc1cnc(C2CS/C(=C(/C#N)n3cncn3)S2)c(Cl)c1 (racemic) [compound 83]
C. albicans (MIC) ([1]; Table 23, 35° C. for 24 hr): 5 ng/mL
A. fumigatus (MIC) ([2]; Table 23, 35° C. for 48 hr): 10 ng/mL

N#C/C(=C1/SCC(c2ncc(NC(=O)OCC3CCC3)cc2Cl)S1)n1cncn1 (racemic) [compound 97]
C. albicans (MIC) ([1]; Table 23, 35° C. for 24 hr): 2.5 ng/mL
A. fumigatus (MIC) ([2]; Table 23, 35° C. for 48 hr): 10 ng/mL

N#CC(=C1SCC(c2ncc(C=NOCC3CC3)cc2Cl)S1)n1cncn1 (racemic) [compound 139]
C. albicans (MIC) ([1]; Table 24, 35° C. for 24 hr): 1.25 ng/mL
A. fumigatus (MIC) ([2]; Table 24, 35° C. for 48 hr): 2.5 ng/mL

N#C/C(=C1/SCC(c2ncc(NC(=O)OCC3CC3(F)F)cc2F)S1)n1cncn1 (racemic) [compound 128]
C. albicans (MIC) ([1]; Table 24, 35° C. for 24 hr): 10 ng/mL
A. fumigatus (MIC) ([2]; Table 24, 35° C. for 48 hr): 10 ng/mL

CCCOC(=O)Nc1cnc([C@@H]2CS/C(=C(/C#N)n3cncn3)S2)c(F)c1 [compound 110]
C. albicans (MIC) ([1]; Table 23, 35° C. for 24 hr): 10 ng/mL
A. fumigatus (MIC) ([2]; Table 23, 35° C. for 48 hr): 5 ng/mL

N#C/C(=C1/SCC(c2ncc(NC(=O)OCc3ccncc3F)cc2Cl)S1)n1cncn1 (racemic) [compound 114]
C. albicans (MIC) ([1]; Table 24, 35° C. for 24 hr): 10 ng/mL
A. fumigatus (MIC) ([2]; Table 24, 35° C. for 48 hr): 10 ng/mL

COC(=O)Nc1cnc([C@@H]2CS/C(=C(/C#N)n3cncn3)S2)c(Cl)c1 [compound 9]
minimum inhibitory concentration against various fungi (MIC) C. albicans [1, 3]: 13 ng/mL (≈ 0.0329 µM)
minimum inhibitory concentration against various fungi (MIC) A. fumigatus [2, 4]: 5 ng/mL (≈ 0.0127 µM)

N#C/C(=C1/SC[C@@H](c2ncc(NC(=O)OCC3CC3)cc2Cl)S1)n1cncn1 [compound 92]
C. albicans (MIC) ([1]; Table 23, 35° C. for 24 hr): 0.63 ng/mL
A. fumigatus (MIC) ([2]; Table 23, 35° C. for 48 hr): 2.5 ng/mL

N#C/C(=C1/SCC(c2ncc(NC(=O)OCC3CC3(F)F)cc2Cl)S1)n1cncn1 (racemic) [compound 96]
C. albicans (MIC) ([1]; Table 23, 35° C. for 24 hr): 5 ng/mL
A. fumigatus (MIC) ([2]; Table 23, 35° C. for 48 hr): 10 ng/mL

N#C/C(=C1/SCC(c2ncc(NC(=O)OCc3ccc(F)nc3)cc2Cl)S1)n1cncn1 (stereo not drawn) [compound 74]
C. albicans (MIC) ([1]; Table 23, 35° C. for 24 hr): 10 ng/mL
A. fumigatus (MIC) ([2]; Table 23, 35° C. for 48 hr): 10 ng/mL

CCCON=Cc1cnc(C2CSC(=C(C#N)n3cncn3)S2)c(F)c1 (racemic) [compound 144]
C. albicans (MIC) ([1]; Table 24, 35° C. for 24 hr): 10 ng/mL
A. fumigatus (MIC) ([2]; Table 24, 35° C. for 48 hr): 5 ng/mL

N#C/C(=C1/SCC(c2ncc(/C=N/OCc3ccccc3)cc2Cl)S1)n1ccnc1 (stereo not drawn) [compound 26]
minimum inhibitory concentration against various fungi (MIC) C. albicans [1, 3]: 1.3 ng/mL (≈ 0.00286 µM)
minimum inhibitory concentration against various fungi (MIC) A. fumigatus [2, 4]: 5 ng/mL (≈ 0.011 µM)

CCOC(=O)Nc1cnc([C@@H]2CS/C(=C(/C#N)n3cncn3)S2)c(F)c1 [Compound No. 8, ethyl (R,E)-(6-{2-[cyano(1H-1,2,4-triazol-1-yl)methylene]-1,3-dithiolan-4-yl}-5-fluoropyridin-3-yl)carbamate]
MIC ([1]; Candida albicans, Table 22, 35° C. for 24 hr, alamar Blue, minimum concentration showing 80% or more inhibition, read-out: minimum inhibitory concentration against various fungi (MIC) C. albicans): 25 ng/mL (≈ 0.0637 µM)
MIC ([2]; Aspergillus fumigatus, Table 22, 35° C. for 48 hr, alamar Blue, minimum concentration showing 80% or more inhibition, read-out: minimum inhibitory concentration against various fungi (MIC) A. fumigatus): 5 ng/mL (≈ 0.0127 µM)

N#C/C(=C1/SCC(c2ncc(NC(=O)OCc3ccccc3)cc2Cl)S1)n1ccnc1 (stereo not drawn) [compound 17]
minimum inhibitory concentration against various fungi (MIC) C. albicans [1, 3]: 1.3 ng/mL (≈ 0.00277 µM)
minimum inhibitory concentration against various fungi (MIC) A. fumigatus [2, 4]: 5 ng/mL (≈ 0.0106 µM)

N#C/C(=C1/SCC(c2ncc(NC(=O)OCc3ccccc3F)cc2Cl)S1)n1cncn1 (racemic) [compound 99]
C. albicans (MIC) ([1]; Table 23, 35° C. for 24 hr): 2.5 ng/mL
A. fumigatus (MIC) ([2]; Table 23, 35° C. for 48 hr): 5 ng/mL

CC1(C)OCC(c2cnc(C3CS/C(=C(/C#N)n4ccnc4)S3)c(Cl)c2)O1 (stereo not drawn) [compound 5]
minimum inhibitory concentration against various fungi (MIC) C. albicans [1, 3]: 5 ng/mL (≈ 0.0119 µM)
minimum inhibitory concentration against various fungi (MIC) A. fumigatus [2, 4]: 10 ng/mL (≈ 0.0238 µM)

N#C/C(=C1/SCC(c2ncc(NC(=O)OCc3cccc(F)c3)cc2Cl)S1)n1cncn1 (racemic) [compound 98]
C. albicans (MIC) ([1]; Table 23, 35° C. for 24 hr): 2.5 ng/mL
A. fumigatus (MIC) ([2]; Table 23, 35° C. for 48 hr): 5 ng/mL

N#C/C(=C1/SC[C@@H](c2ncc(NC(=O)OCc3ccccc3)cc2F)S1)n1cncn1 [compound 106]
C. albicans (MIC) ([1]; Table 23, 35° C. for 24 hr): 1.25 ng/mL
A. fumigatus (MIC) ([2]; Table 23, 35° C. for 48 hr): 5 ng/mL

N#C/C(=C1/SCC(c2ncc(NC(=O)OCCCCl)cc2Cl)S1)n1ccnc1 (stereo not drawn) [compound 67]
C. albicans (MIC) ([1]; Table 23, 35° C. for 24 hr): 2.5 ng/mL
A. fumigatus (MIC) ([2]; Table 23, 35° C. for 48 hr): 10 ng/mL

CCCOC(=O)Nc1cnc([C@@H]2CS/C(=C(/C#N)n3cncn3)S2)c(Cl)c1 [compound 94]
C. albicans (MIC) ([1]; Table 23, 35° C. for 24 hr): 2.5 ng/mL
A. fumigatus (MIC) ([2]; Table 23, 35° C. for 48 hr): 2.5 ng/mL

N#C/C(=C1/SCC(c2ncc(NC(=O)OCc3ccccc3)cc2F)S1)n1cncn1 (stereo not drawn) [compound 13]
minimum inhibitory concentration against various fungi (MIC) C. albicans [1, 3]: 2.5 ng/mL (≈ 0.0055 µM)
minimum inhibitory concentration against various fungi (MIC) A. fumigatus [2, 4]: 5 ng/mL (≈ 0.011 µM)

N#C/C(=C1/SCC(c2ncc(COC3CCCCO3)cc2Cl)S1)n1ccnc1 (stereo not drawn) [compound 28, (E)-2-[4-(3-chloro-5-{[(tetrahydro-2H-pyran-2-yl)oxy]methyl}pyridin-2-yl)-1,3-dithiolan-2-ylidene]-2-(1H-imidazol-1-yl)acetonitrile]
C. albicans (MIC) ([1]; Table 23, 35° C. for 24 hr): 10 ng/mL
A. fumigatus (MIC) ([2]; Table 23, 35° C. for 48 hr): 10 ng/mL

CCCOC(=O)Nc1cnc(C2CS/C(=C(/C#N)n3cncn3)S2)c(Cl)c1 (racemic) [compound 84]
C. albicans (MIC) ([1]; Table 23, 35° C. for 24 hr): 5 ng/mL
A. fumigatus (MIC) ([2]; Table 23, 35° C. for 48 hr): 5 ng/mL

N#C/C(=C1/SC[C@@H](c2ncc(NC(=O)OCC3CC3(F)F)cc2F)S1)n1cncn1 (stereo partly drawn) [compound 131]
C. albicans (MIC) ([1]; Table 24, 35° C. for 24 hr): 10 ng/mL
A. fumigatus (MIC) ([2]; Table 24, 35° C. for 48 hr): 10 ng/mL

N#C/C(=C1/SCC(c2ncc(NC(=O)OCC3CC(F)(F)C3)cc2Cl)S1)n1cncn1 (racemic) [compound 107]
C. albicans (MIC) ([1]; Table 23, 35° C. for 24 hr): 5 ng/mL
A. fumigatus (MIC) ([2]; Table 23, 35° C. for 48 hr): 10 ng/mL

CC1CC1COC(=O)Nc1cnc(C2CS/C(=C(/C#N)n3cncn3)S2)c(Cl)c1 (racemic) [compound 118]
C. albicans (MIC) ([1]; Table 24, 35° C. for 24 hr): 1.25 ng/mL
A. fumigatus (MIC) ([2]; Table 24, 35° C. for 48 hr): 5 ng/mL

N#C/C(=C1/SC[C@@H](c2ncc(NC(=O)OCC3(F)CC3)cc2Cl)S1)n1cncn1 [compound 155]
C. albicans (MIC) ([1]; Table 25, 35° C. for 24 hr): 2.5 ng/mL
A. fumigatus (MIC) ([2]; Table 25, 35° C. for 48 hr): 10 ng/mL

CO/N=C/c1cnc(C2CS/C(=C(/C#N)n3cncn3)S2)c(F)c1 (stereo not drawn) [compound 18]
minimum inhibitory concentration against various fungi (MIC) C. albicans [1, 3]: 50 ng/mL (≈ 0.138 µM)
minimum inhibitory concentration against various fungi (MIC) A. fumigatus [2, 4]: 10 ng/mL (≈ 0.0276 µM)

N#C/C(=C1/SCC(c2ncc(NC(=O)OCC3CC3)cc2F)S1)n1cncn1 (racemic) [compound 103]
C. albicans (MIC) ([1]; Table 23, 35° C. for 24 hr): 5 ng/mL
A. fumigatus (MIC) ([2]; Table 23, 35° C. for 48 hr): 10 ng/mL

N#C/C(=C1/SCC(c2ncc(NC(=O)OCc3ccc(F)cn3)cc2Cl)S1)n1cncn1 (stereo not drawn) [compound 73]
C. albicans (MIC) ([1]; Table 23, 35° C. for 24 hr): 10 ng/mL
A. fumigatus (MIC) ([2]; Table 23, 35° C. for 48 hr): 10 ng/mL

N#CC(=C1SCC(c2ncc(C=NOCC3CC3)cc2F)S1)n1cncn1 (racemic) [compound 140]
C. albicans (MIC) ([1]; Table 24, 35° C. for 24 hr): 2.5 ng/mL
A. fumigatus (MIC) ([2]; Table 24, 35° C. for 48 hr): 2.5 ng/mL

N#C/C(=C1/SCC(c2ncc(NC(=O)OCc3ccc(F)cc3)cc2Cl)S1)n1cncn1 (racemic) [compound 89]
C. albicans (MIC) ([1]; Table 23, 35° C. for 24 hr): 2.5 ng/mL
A. fumigatus (MIC) ([2]; Table 23, 35° C. for 48 hr): 10 ng/mL

N#C/C(=C1/SCC(c2ncc(/C=N/OCc3ccccc3)cc2F)S1)n1cncn1 (stereo not drawn) [compound 22]
minimum inhibitory concentration against various fungi (MIC) C. albicans [1, 3]: 0.6 ng/mL (≈ 0.00137 µM)
minimum inhibitory concentration against various fungi (MIC) A. fumigatus [2, 4]: 5 ng/mL (≈ 0.0114 µM)

CCO/N=C/c1cnc(C2CS/C(=C(/C#N)n3cncn3)S2)c(F)c1 (stereo not drawn) [compound 20]
minimum inhibitory concentration against various fungi (MIC) C. albicans [1, 3]: 13 ng/mL (≈ 0.0345 µM)
minimum inhibitory concentration against various fungi (MIC) A. fumigatus [2, 4]: 10 ng/mL (≈ 0.0266 µM)

N#C/C(=C1/SCC(c2ncc(NC(=O)OCc3ccnc(F)c3)cc2Cl)S1)n1cncn1 (racemic) [compound 115]
C. albicans (MIC) ([1]; Table 24, 35° C. for 24 hr): 5 ng/mL
A. fumigatus (MIC) ([2]; Table 24, 35° C. for 48 hr): 10 ng/mL

N#C/C(=C1/SCC(c2ncc(NC(=O)OCC3(F)CC3)cc2Cl)S1)n1cncn1 (racemic) [compound 150]
C. albicans (MIC) ([1]; Table 25, 35° C. for 24 hr): 5 ng/mL
A. fumigatus (MIC) ([2]; Table 25, 35° C. for 48 hr): 10 ng/mL
